Laboratory results as given in patent US20060167242A1, “Cephalosporin in crystalline form” (priority 2004, published 2006).

Experiment: Determination of storage stability of crystalline material (HPLC analysis after storage)
Format: physicochemical
Procedure: Determination of Storage Stability of Crystalline Material of Formula I
A crystalline and an amorphous sample of (6R,7R)-7-[(Z)-2-(5-Amino-[1,2,4]thiadiazol-3yl)-2-hydroxyimino-acetylamino1-8-oxo-3-[(E)-(R)-1′-(5-methyl-2-oxo-1,3]dioxol-4-ylmethoxycarbonyl)-2-oxo-[1,3′]bipyrrolidinyl-3-ylidenemethyl]-8-oxo-5-thia-1-aza-bicyclo[4.2.0]oct-2-ene-2-carboxylic acid were stored at different temperatures for 24 hours, 28 days and for 3 months.

[1] = 3 months, 5° C. (as compared to −20° C.)
[2] = storage for 3 months, Temperature 5, Rel. Humidity Ca. 58%
[3] = storage for 3 months, Temperature 25, Rel. Humidity Ca. 58%
[4] = storage for 3 months, −20° C., Rel. Humidity Not defined
[5] = storage for 24 hours, Temperature 5, Rel. Humidity Ca. 58%
[6] = storage for 24 hours, Temperature 25, Rel. Humidity Ca. 58%
[7] = storage for 24 hours, Temperature 40, Rel. Humidity Ca. 75%
[8] = storage for 24 hours, Temperature 60, Rel. Humidity Ca. 75%
[9] = storage for 24 hours, −20° C., Rel. Humidity Not defined
[10] = storage for 28 days, Temperature 5, Rel. Humidity Ca. 58%
[11] = storage for 28 days, Temperature 25, Rel. Humidity Ca. 58%
[12] = storage for 28 days, −20° C., Rel. Humidity Not defined

SMILES | decomposition on storage (in words) [1] | decomposition on storage (in words) (3 months, 25° C.) | decomposition on storage (in words) (28 days, 5° C.) | Area-% (HPLC) [2] [Area-%] | Area-% (HPLC) [3] [Area-%] | Area-% (HPLC) [4] [Area-%] | Area-% (HPLC) [5] [Area-%] | Area-% (HPLC) [6] [Area-%] | Area-% (HPLC) [7] [Area-%] | Area-% (HPLC) [8] [Area-%] | decomposition on storage (in words) (storage for 24 hours, temperatures above 5° C.) | Area-% (HPLC) [9] [Area-%] | Area-% (HPLC) [10] [Area-%] | Area-% (HPLC) [11] [Area-%] | Area-% (HPLC) [12] [Area-%] | decomposition on storage (in words) (28 days, 25° C.) | stability on storage (in words) (storage for 24 hours, whole temperature range of investigation)
Cc1oc(=O)oc1COC(=O)N1CC[C@@H](N2CC/C(=C\C3=C(C(=O)O)N4C(=O)[C@@H](NC(=O)/C(=N\O)c5nsc(N)n5)[C@H]4SC3)C2=O)C1 [amorphous compound I, (6R,7R)-7-[(Z)-2-(5-Amino-[1,2,4]thiadiazol-3yl)-2-hydroxyimino-acetylamino1-8-oxo-3-[(E)-(R)-1′-(5-methyl-2-oxo-1,3]dioxol-4-ylmethoxycarbonyl)-2-oxo-[1,3′]bipyrrolidinyl-3-ylidenemethyl]-8-oxo-5-thia-1-aza-bicyclo[4.2.0]oct-2-ene-2-carboxylic acid] | slight decomposition | strongly decreased | decreased | 96.9 | 91.4 | 97.6 | 99.05 | 98.85 | 98.25 | 96.67 | decomposed significantly | 99.04 | 98.1 | 96.4 | 98.6 |  | 
Cc1oc(=O)oc1COC(=O)N1CC[C@@H](N2CC/C(=C\C3=C(C(=O)O)N4C(=O)[C@@H](NC(=O)/C(=N\O)c5nsc(N)n5)[C@H]4SC3)C2=O)C1.Cl [crystalline compound II, (6R,7R)-7-[(Z)-2-(5-Amino-[1,2,4]thiadiazol-3-yl) -2-hydroxyimino-acetylamino]-8-oxo-3-[(E)-(R)-1′-(5-methyl-2-oxo-[1,3]dioxol-4-ylmethoxycarbonyl)-2-oxo-[1,3′]bipyrrolidinyl-3-ylidenemethyl]-8-oxo5-thia-1-aza-bicyclo[4.2.0]oct-2-ene-2-carboxylic acid Hydrochloride Trihydrate] | no decomposition | slight decomposition |  | 93.9 | 93.4 | 94 | 95.7 | 95.75 | 95.45 | 95.57 |  | 95.77 | 95.2 | 94.9 | 95.3 | slight decomposition | very good stability
